Read-outs that look alike come from different tables or passages of the source.
Experiments:
[1] = molecular target: porcine pancreatic elastase (PPE) (Sus scrofa, UniProt P00772); experiment: Deactivation of porcine pancreatic elastase (PPE), Kitz and Wilson / Hart and O'Brian kinetics; assay type: biochemical; details: for Ki / kinact / kinact/KI: 37° C., pH 8, 0.1M tris buffer; for Ki / kinact: Kitz and Wilson (5a, 5c, 5e, 10a), Hart and O'Brian (5a, 5'a); for Ki: read-out: Ki (dissociation constant of the enzyme-inhibitor complex), PPE; for kinact: read-out: ki (first order constant for the formation of the deactivated enzyme), PPE; for kinact/KI: read-out: ki/Ki (apparent second order constant characterizing the deactivation), PPE
Sequence of porcine pancreatic elastase (PPE) (P00772 27-266): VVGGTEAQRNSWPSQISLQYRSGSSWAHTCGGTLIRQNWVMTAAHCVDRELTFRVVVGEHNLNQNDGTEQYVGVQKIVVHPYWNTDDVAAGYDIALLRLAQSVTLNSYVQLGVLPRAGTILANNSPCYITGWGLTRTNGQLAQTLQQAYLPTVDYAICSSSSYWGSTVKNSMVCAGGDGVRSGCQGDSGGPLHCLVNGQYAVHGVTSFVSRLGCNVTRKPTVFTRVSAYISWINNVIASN
Description: (§1) All the kinetic measurements are carried out at 37° C. and at a pH of 8 with a 0.1M tris buffer (PPE) or a 0.1M tris buffer, Brij 0.01%, NaN3 0.02% (HLE) (pH 7.5 for compound 5d). The method of Hart and O'Brian was published in 1973 in Biochemistry, Vol. 12, pp. 2940-2945 and that of Kitz and Wilson in 1962 in J. Biol. Chem., Vol. 237, pp. 3245-3249. In this way the first order constant ki is determined for the formation of the deactivated enzyme and the dissociation constant Ki of the enzyme-inhibitor complex. The ki: Ki ratio is the apparent second order constant characterizing the deactivation.

[2] = molecular target: T1, human leucocytic elastase (HLE) (Homo sapiens, UniProt P08246); experiment: Deactivation of human leucocytic elastase (HLE), Kitz and Wilson kinetics; assay type: biochemical; details: for Ki / kinact / kinact/KI: 37° C., Brij 0.01%, NaN3 0.02%, Kitz and Wilson; for Ki: read-out: Ki (dissociation constant of the enzyme-inhibitor complex), HLE; for kinact: read-out: ki (first order constant for the formation of the deactivated enzyme), HLE
T1 sequence (P08246 30-267): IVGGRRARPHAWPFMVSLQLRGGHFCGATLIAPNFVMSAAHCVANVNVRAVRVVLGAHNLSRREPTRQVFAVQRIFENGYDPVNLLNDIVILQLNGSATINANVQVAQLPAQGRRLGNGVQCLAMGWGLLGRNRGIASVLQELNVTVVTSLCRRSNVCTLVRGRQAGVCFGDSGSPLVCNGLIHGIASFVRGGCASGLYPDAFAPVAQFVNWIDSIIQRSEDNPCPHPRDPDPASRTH
Description: as §1

chymotrypsin = experiment: Test as chymotrypsin inhibitors under identical conditions; assay type: biochemical
Description: (§2) The properties of the N-aryl-azetidinones obtained in examples 4, 5, 6, 7, 11, 17, 22 and 23 are checked and in particular their deactivation capacity for porcine pancreatic elastase (PPE) and human leucocytic elastase (HLE) using the methods of Kitz and Wilson for HLE in the case of compounds 5a, 5c, 5d, 5e, 5a' and 10a, the method of Kitz and Wilson for PPE in the case of compounds 5a, 5c, 5e and 10a and the method of Hart and O'Brian for PPE in the case of compounds 5a and 5'a. All the kinetic measurements are carried out at 37° C. and at a pH of 8 with a 0.1M tris buffer (PPE) or a 0.1M tris buffer, Brij 0.01%, NaN3 0.02% (HLE) (pH 7.5 for compound 5d).
(§3) On testing compounds 5, 5c, 5'a'under identical conditions as chymotrypsin or trypsin inhibitors, it can be seen that they have no action on these enzymes.

trypsin = experiment: Test as trypsin inhibitors under identical conditions; assay type: biochemical
Description: as §2, §3

elastase [3] = experiment: Effect on the degradation of elastin by elastase; assay type: biochemical; details: for deactivation of elastase previously incubated with elastin: elastase previously incubated for 30 min. in the presence of an elastin excess (2mg)
Description: The effect of compound 5on the degradation of elastin, the natural substrate of elastase in the human organism was tested.

[4] = Acute toxicity in male and female mice; details: mouse, in vivo
Description: The acute toxicity of compound 5a researched on male and female mice exceeds 200 mg/kg.

elastase [5] = experiment: Properties with respect to elastase (substrate or inhibitor); assay type: biochemical
Description: Thus, the nature of the R^3 substituent has a significant influence on the properties of the product obtained.

[6] = pH 8, 0.1M tris buffer, read-out: ki/Ki (apparent second order constant characterizing the deactivation), HLE

SMILES	deactivation of PPE (in words) [1]	Ki [1] [µM]	kinact [1] [s⁻¹]	kinact/KI [1] [M⁻¹ s⁻¹]	deactivation of HLE (in words) [2]	Ki ([2]; pH 8, 0.1M tris buffer) [µM]	kinact ([2]; pH 8, 0.1M tris buffer) [s⁻¹]	kinact/KI [2, 6] [M⁻¹ s⁻¹]	deactivation of elastase previously incubated with elastin (elastase [3])	elastase inhibition (elastase [5])	elastase substrate (elastase [5])	kinact/KI ([2]; pH 7.5 for compound 5d, 0.1M tris buffer, read-out: ki/Ki (apparent second order constant characterizing the deactivation), HLE, pH 7.5) [M⁻¹ s⁻¹]	action on chymotrypsin (chymotrypsin)	action on trypsin (trypsin)	capacity of treated elastase to degrade elastin (elastase [3]; elastase previously treated by the compound)	LD50 [4] [mg/kg]
O=C1N(c2ccccc2CCl)CC1(F)Br (stereo not shown) [5'a, N-(2-chloromethylphenyl)-3-fluoro-3bromo-2-azetidinone]	deactivate	8.5	0.048	5650	deactivate	1170	0.37	316	remain capable of deactivating elastase				no action	no action		
O=C1N(c2ccccc2CCl)CC1(F)F [Compound 5a, N-(2-chloromethylphenyl)-3,3-difluoro-2-azetidinone]	deactivate	30	0.031	1030	deactivate	16.6	0.005	301	remain capable of deactivating elastase				no action	no action	lost its capacity to degrade elastin	> 200
O=C1N(c2ccccc2CF)CC1(F)F [Compound 5b, N-(2-fluoromethylphenyl)-3,3-difluoro-2-azetidinone]										not inhibitors	elastase substrates					
CS(=O)(=O)OCc1ccccc1N1CC(F)(F)C1=O [Compound 5c, N-(2-methanesulphonyloxymethylphenyl)-3,3-difluoro-2-azetidinone]	deactivate	48	0.017	354	deactivate	500	0.05	100	remain capable of deactivating elastase				no action	no action		
O=C1N(c2ccccc2CBr)CC1(F)F [Compound 5d, N-(2-bromomethylphenyl)-3,3-difluoro-2-azetidinone]												40				
O=C1N(c2ccccc2CCl)CC1(Cl)Cl [Compound 5e, N-(2-chloromethylphenyl)-3,3-di-chloro-2-azetidinone]		590	0.028	47		500	0.03	60								

Continued, in another order:

deactivation of PPE (in words) [1]	Ki [1] [µM]	kinact [1] [s⁻¹]	kinact/KI [1] [M⁻¹ s⁻¹]	deactivation of HLE (in words) [2]	Ki ([2]; pH 8, 0.1M tris buffer) [µM]	kinact ([2]; pH 8, 0.1M tris buffer) [s⁻¹]	kinact/KI [2, 6] [M⁻¹ s⁻¹]	deactivation of elastase previously incubated with elastin (elastase [3])	elastase inhibition (elastase [5])	elastase substrate (elastase [5])	kinact/KI ([2]; pH 7.5 for compound 5d, 0.1M tris buffer, read-out: ki/Ki (apparent second order constant characterizing the deactivation), HLE, pH 7.5) [M⁻¹ s⁻¹]	SMILES	action on chymotrypsin (chymotrypsin)	action on trypsin (trypsin)	capacity of treated elastase to degrade elastin (elastase [3]; elastase previously treated by the compound)	LD50 [4] [mg/kg]
deactivate	660	0.075	113	deactivate			~1.2					O=C1N(c2ccc(CCl)cc2)CC1(F)F [Compound 10a, N-(4-chloromethylphenyl)-3,3-difluoro-2-azetidinone]				
									not inhibitors	elastase substrates		O=C1N(c2ccc(CF)cc2)CC1(F)F [Compound 10b, N-(4-fluoromethylphenyl)-3,3-difluoro-2-azetidinone]				
